Assay results: patent US20200323838A1, “LENALIDOMIDE IMMEDIATE RELEASE FORMULATIONS” (Synbias Pharma AG, priority 2017, published 2020)
In brackets after ≈: the same amount, converted by molar mass. Read-outs that look alike come from different tables or passages of the source.

Assays:
[1] = high solubility, low permeability; cited from earlier work
[2] = 0.1 HCl buffer (highest solubility); cited from earlier work
[3] = cited from earlier work
[4] = Dissolution of hard gelatin capsules (Xtend Sotax dissolutor, HPLC detection); format: physicochemical
Description: (§1) Micronized lenalidomide form A (d(0.5)=10 μm) was mixed with microcrystalline cellulose in a ratio 1:10, filled manually in Size 2 HGC and analyzed for dissolution. Dissolution experiments were run in Xtend Sotax dissolutor, in phosphate buffer pH 6.5 and 0.01 HCl pH 1.8. Sampling time intervals were 10, 15, 20, min. In house developed isocratic HPLC analytical method was used for detection of lenalidomide in dissolution media.
as §1, with “Non-micronized” for “Micronized”, “(d(0.5)=30” for “(d(0.5)=10”
20 mg of non-micronized lenalidomide form A were mixed with 20 mg microcrystalline cellulose, 60 mg lactose monohydrate and, filled manually in size 2 HGC and analyzed for dissolution as in Example 1.
Formulation prepared according to Example 6 was used for comparative dissolution with Revlimid HGCs in 50 mM phosphate buffer pH 6.8. The results in Table 8 show there was no difference between dissolution profile of Revlimid and tested HGC. […]

[5] = HCl buffer pH 1.8, containing 1% sodium lauryl sulfate; cited from earlier work

| Structure (SMILES) | BCS class [1] | solubility [2] [mg/mL] | time to reach maximum serum concentration (Tmax) ([3]; healthy volunteers, oral) [min] | time to reach maximum serum concentration (Tmax) ([3]; patients with acute myeloid leukemia, oral administration, 25 mg) [min] | lenalidomide API dissolved in 10 min [4] [%] | solubility [5] [mg/mL] |
| --- | --- | --- | --- | --- | --- | --- |
| Nc1cccc2c1CN(C1CCC(=O)NC1=O)C2=O (stereo not drawn) [Lenalidomide, 3-(4-amino-1,3-dihydro-1-oxo-2H-isoindol-2-yl)-2,6-piperidine dione] | class III | 18.0 (≈ 69.4 mM) | 46.2 to 60 | 71.4 | ≥ 80 |  |
| Nc1cccc2c1CN(C1CCC(=O)NC1=O)C2=O (stereo not drawn) [Polymorph B] |  |  |  |  |  | 5.8 (≈ 22.4 mM) |
